Measurements published in US20260193295A1, “CILAGICIN COMPOUNDS AND METHODS OF USE THEREOF” (priority 2022, published 2026).
Converted amounts (≈) assume the structure as drawn. Positions of bridges follow the written chain, without caps; N, C: chain ends. Non-standard residues stand in square brackets, D forms with d. Residues, ends and D or L forms follow the SMILES beside them. *: point of attachment. Ileψ(thiazoline)Cys = CC[C@H](C)[C@H](N)C1=N[C@H](C(=O)*)CS1; Benzoyl(4-Ph) = O=C(c1ccc(-c2ccccc2)cc1)*; Hexanoyl(6-Ph) = O=C(CCCCCc1ccccc1)*; dOrn = NCCC[C@@H](N)C(=O)O; X1 = CC[C@H](C)CCCCC(=O)*; X3 = Cc1ccccc1/C=C/C(=O)*; dDab = NCC[C@@H](N)C(=O)O; Dab = NCC[C@H](N)C(=O)O

Experiments:
[1] = system: Streptococcus pyrogens; type: cell-based
Protocol: (§1) MIC assay were conducted using the protocol recommended by the Clinical and Laboratory Standards Institute.(37) Culture conditions (temperature, medium) are detailed in Table 3. All compounds were dissolved in sterile DMSO (ATCC, USA) to give a concentration of 6.4 mg/mL. Vancomycin hydrochloride was used as positive controls. Tested compounds were serially diluted across 96-well plates using a 2-fold serial dilution in a volume of 50 μL. An overnight culture of an assay strain was diluted 5,000-fold in fresh medium. 50 μL of this dilution was added into each well, giving a final volume of 100 μL in each well. Compounds were assayed at concentrations ranging from 64 μg/mL to 0.06 μg/mL. The top and bottom rows of each plate were filled with 100 μL of media to avoid edge effects. […] For Clostridium difficile plates were statically incubated under anaerobic conditions (Vinyl anaerobic chamber, 37° C., 5% H2, 5% CO2, 90% N2). For Streptococcus pneumoniae plates were statically incubated under aerobic conditions supplemented with 5% C02 (37° C.). All MICs were performed in technical duplicate (n=2) and repeated three independent times (n=3).

[2] = system: Streptococcus pneumoniae; type: cell-based
Protocol: as §1

[3] = system: Streptococcus agalactiae; type: cell-based
Protocol: as §1

[4] = system: Staphylococcus aureus; type: cell-based
Protocol: as §1

[5] = system: Enterococcus faecium; type: cell-based
Protocol: as §1

[6] = system: HEK293 cells; type: cell-based, human
Protocol: The cytotoxicity of […] analogs was tested using an MTT (3-(4,5-Dimethyl-2-thiazolyl)-2,5-diphenyl-2H-tetrazolium bromide) assay as previously described ([…] et al., 2006, […]7). HEK293 cells were seeded in a 96-well plate with a density of 5,000 cells/well and cultured in Dulbecco's Modified Eagle Medium (DMEM) supplemented with 10% fetal bovine serum, 1% Pen/Strep and 1% glutamate for 24 hours at 37° C. with 5% CO2. […] After 48 hours of incubation, the media was removed and 110 μL of freshly prepared MTT solution (0.45 mg/mL in DPBS) was added to each well. The plates were incubated for 3 hours at 37° C. with 5% C02 after which the MTT solution was removed by aspiration. […] The absorbance of each well was measured at OD570nm using a microplate reader (Infinite 200 PRO, Tecan). […] All the experiments were performed in triplicates (n=3) and repeated two independent times (n=2).

[7] = system: red blood cell (5% sheep blood agar plate); type: cell-based
Protocol: The hemolytic activity of cilagicin was evaluated using a red blood cell disc diffusion assay. Cilagicin and other test compounds were dissolved in 10% DMSO to give concentrations ranging from 100 μg/mL to 12.5 μg/mL. 10% (v/v) Triton X-100 and 10% DMSO were used as positive and vehicle controls, respectively. 20 μL of each serially diluted compound was infused on a sterile disc. Infused discs were overlaid on the surface of a 5% sheep blood agar plate (Hardy diagnostics, USA) and incubated at 20° C. for 24 hours. The size of the transparent ring that appeared in the agar plate was measured to determine hemolytic activity. Experiments were performed two independent times. A representative picture was taken of one experiment.

[8] = system: S. aureus USA300; assay: Neutropenic thigh infection model in mice; type: in vivo, Staphylococcus aureus; details: neutropenic mouse thigh model, S. aureus USA300, 40 mg/kg thrice daily (TID) IP, 24 hours post infection
Protocol: Mice were randomly housed in individually ventilated cages (IVC). The room was set on a twelve-hour light cycle and the temperature was set to 70° F. The humidity was set to 30%. To initiate the neutropenic model, mice were injected with 150 mg/kg and 100 mg/kg of cyclophosphamide via intraperitoneal (IP) injection on days −4 and −1, respectively. On day −1, a single colony of S. aureus USA300 was grown in 15 mL of cation adjusted Mueller Hinton (MH) broth at 37° C. with shaking overnight. On day 0, cells were centrifuged, washed twice in 0.9% sterile saline, and resuspended in sterile 0.9% saline solution to give final optical density (600 nm) of 0.1. 50 μL of bacteria suspension was injected into both thighs via intramuscular (IM) injection. This provides a challenge inoculum of approximately 1.0×10^6 CFU in each thigh in a volume of 50 μL. At 2 hours post infection, mice were given 200 μL of vehicle (10% DMSO), vancomycin (40 mg/kg, 10% DMSO) or cilagicin BP (40 mg/kg, 10% DMSO) at 2, 10, and 18 hours post infection via IP injection. Mice in the pretreatment group (n=4 mice/n=8 thighs) were humanely euthanized by CO2 narcosis to determine the starting thigh bacterial burden. […] All graphic data are expressed as data points by group and were statistically analyzed using Prism software (Prism 9). […]

[9] = system: S. pyrogens ATCC19615; assay: Neutropenic thigh infection model in mice; type: in vivo, Streptococcus pyrogens; details: neutropenic mouse thigh model
[10] = system: Clostridium difficile; assay: MIC assay (broth microdilution); type: cell-based; details: C. difficile HM89
Protocol: as §1

[11] = system: S. aureus USA300; assay: Resistance studies (daily serial passage at sub-MIC); type: cell-based, Staphylococcus aureus; details: daily serial passage at sub-MIC levels of antibiotic
Protocol: A single colony of S. aureus USA300 was inoculated in 5 mL LB broth and grown overnight at 37° C. with continuous shaking (200 rpm). The overnight culture was then diluted 1:5,000 into fresh LB. 50 μL aliquots of dilute cells were transferred into individual wells of 96-well plates containing 50 μL of serially diluted cilagicin, amphomycin (AG Scientific, USA) or bacitracin (Sigma, USA). Plates were statically incubated at 37° C. After 24 hours, the MIC was recorded. […] The MIC was determined as described above. This process was repeated daily for 25 days. For bacitracin, the LB medium was supplemented with 50 μg/mL ZnCl2. For amphomycin, the medium was supplemented with 100 μg/mL CaCl2-2H2O. Experiments were performed three independent times (n=3).

Row | Compound | MIC [1] [µg/mL] | MIC [2] [µg/mL] | MIC [3] [µg/mL] | MIC [4] [µg/mL] | MIC [5] [µg/mL] | human cell cytotoxicity [6] | hemolytic activity [7] | reduction in colony forming units (CFU) compared to the vehicle control [8] [log10] | antibacterial activity (MIC) in the presence of serum ([4]; S. aureus, presence versus absence of serum (10% serum)) | reduction in bacterial burden compared to the vehicle control ([9]; S. pyrogens ATCC19615, 40 mg/kg TID IP, 24 hours post infection) [log10] | reduction of bacterial burden compared with vancomycin ([9]; S. pyrogens, both 40 mg/kg TID) | MIC [10] [µg/mL] | development of resistance by S. aureus [11]
1 | CC(C)[C@@H]1NC(=O)[C@H](Cc2ccc(O)cc2)NC(=O)CNC(=O)[C@@H](CC(=O)O)NC(=O)[C@@H](CC(N)=O)NC(=O)CNC(=O)[C@H](CC(=O)O)NC(=O)[C@@H](CCN)NC(=O)[C@@H](NC(=O)[C@@H](CO)NC(=O)c2ccc(-c3ccccc3)cc2)[C@@H](C)OC(=O)[C@H](Cc2ccccc2)NC(=O)[C@H](CCN)NC1=O [Cilagicin BP] ({Benzoyl(4-Ph)}-[dS]T[dDab]DG[dN][dD]GYV[Dab]F; ester 2-C) | 1 (≈ 0.696 µM) | 4 (≈ 2.78 µM) | 16 (≈ 11.1 µM) | 4 (≈ 2.78 µM) | >64 | no human cell cytotoxicity | no hemolytic activity | ~4 | no increase in MIC | > 5 | more than a log greater reduction of bacterial burden than vancomycin | 16 (≈ 11.1 µM) | 
2 | CC[C@H](C)[C@H](N)C1=N[C@H](C(=O)N[C@@H](CC(C)C)C(=O)N[C@H](CCC(=O)O)C(=O)N[C@H](C(=O)N[C@H]2CCCCNC(=O)[C@H](CC(N)=O)NC(=O)[C@@H](CC(=O)O)NC(=O)[C@H](Cc3cnc[nH]3)NC(=O)[C@@H](Cc3ccccc3)NC(=O)[C@H]([C@@H](C)CC)NC(=O)[C@@H](CCCN)NC2=O)[C@@H](C)CC)CS1 [bacitracin] ({Ileψ(thiazoline)Cys}-L[dE]IK[dOrn]I[dF]H[dD]N; lactam 4-C) |  |  |  |  |  |  |  |  |  |  |  |  | rapidly developed resistance
3 | amphomycin |  |  |  |  |  |  |  |  |  |  |  |  | rapidly developed resistance

More lines, main results first:

Row | MIC [1] [µg/mL] | MIC [2] [µg/mL] | MIC [3] [µg/mL] | MIC [4] [µg/mL] | MIC [5] [µg/mL] | Compound | human cell cytotoxicity [6] | hemolytic activity [7] | reduction in colony forming units (CFU) compared to the vehicle control [8] [log10] | antibacterial activity (MIC) in the presence of serum ([4]; S. aureus, presence versus absence of serum (10% serum)) | reduction in bacterial burden compared to the vehicle control ([9]; S. pyrogens ATCC19615, 40 mg/kg TID IP, 24 hours post infection) [log10] | reduction of bacterial burden compared with vancomycin ([9]; S. pyrogens, both 40 mg/kg TID) | MIC [10] [µg/mL] | development of resistance by S. aureus [11]
4 | 4 (≈ 2.86 µM) | 32 (≈ 22.8 µM) | 64 (≈ 45.7 µM) | 64 (≈ 45.7 µM) | >64 | Cc1ccccc1/C=C/C(=O)N[C@H](CO)C(=O)N[C@@H]1C(=O)N[C@H](CCN)C(=O)N[C@@H](CC(=O)O)C(=O)NCC(=O)N[C@H](CC(N)=O)C(=O)N[C@H](CC(=O)O)C(=O)NCC(=O)N[C@@H](Cc2ccc(O)cc2)C(=O)N[C@@H](C(C)C)C(=O)N[C@@H](CCN)C(=O)N[C@@H](Cc2ccccc2)C(=O)O[C@@H]1C [Cilagicin L6] (X3-[dS]T[dDab]DG[dN][dD]GYV[Dab]F; ester 2-C) |  |  |  |  |  |  |  | 
5 | 1 (≈ 0.699 µM) | 4 (≈ 2.8 µM) | 16 (≈ 11.2 µM) | 8 (≈ 5.59 µM) | 64 (≈ 44.7 µM) | CC(C)[C@@H]1NC(=O)[C@H](Cc2ccc(O)cc2)NC(=O)CNC(=O)[C@@H](CC(=O)O)NC(=O)[C@@H](CC(N)=O)NC(=O)CNC(=O)[C@H](CC(=O)O)NC(=O)[C@@H](CCN)NC(=O)[C@@H](NC(=O)[C@@H](CO)NC(=O)CCCCCc2ccccc2)[C@@H](C)OC(=O)[C@H](Cc2ccccc2)NC(=O)[C@H](CCN)NC1=O [Cilagicin L3] ({Hexanoyl(6-Ph)}-[dS]T[dDab]DG[dN][dD]GYV[Dab]F; ester 2-C) |  |  |  |  |  |  |  | 
6 | 1 (≈ 0.716 µM) | 4 (≈ 2.86 µM) | 8 (≈ 5.73 µM) | 4 (≈ 2.86 µM) | 64 (≈ 45.8 µM) | CC[C@H](C)CCCCC(=O)N[C@H](CO)C(=O)N[C@@H]1C(=O)N[C@H](CCN)C(=O)N[C@@H](CC(=O)O)C(=O)NCC(=O)N[C@H](CC(N)=O)C(=O)N[C@H](CC(=O)O)C(=O)NCC(=O)N[C@@H](Cc2ccc(O)cc2)C(=O)N[C@@H](C(C)C)C(=O)N[C@@H](CCN)C(=O)N[C@@H](Cc2ccccc2)C(=O)O[C@@H]1C [Cilagicin L5] (X1-[dS]T[dDab]DG[dN][dD]GYV[Dab]F; ester 2-C) |  |  |  |  |  |  |  | 
